In ChEMBL document CHEMBL3046079, “Synthesis, herbicidal activity, and mode of action of IR 5790” (J Agric Food Chem, 2001):
The source made the active and inactive calls. The rule behind the calls is not given here.

How the values were obtained:
[1] = tested on: Persicaria maculosa; assay: Post-emergence herbicidal activity against Persicaria maculosa assessed as injury at 15 g/ha applied at 15 days post-sowing measured after 15 days relative to control; type: functional
[2] = tested on: Triticum aestivum; assay: Phytotoxicity against Triticum aestivum (wheat) assessed as injury at 15 g/ha applied as post-emergent treatment at 15 days post-sowing measured after 15 days relative to control; type: organism-based; conditions: in vivo, other, 360 h
[3] = target: T1, Putative protoporphyrinogen IX oxidase (Cucumis sativus) (UniProt C6L817); assay: Inhibition of protoporphyrin oxidase in Cucumis sativus (cucumber) cotyledon disc assessed as light-dependent membrane damage at 10 uM incubated for 20 hr in dark followed by 8 hr in presence of light measured as electrolyte leakage relative to control
T1 sequence (whole entry): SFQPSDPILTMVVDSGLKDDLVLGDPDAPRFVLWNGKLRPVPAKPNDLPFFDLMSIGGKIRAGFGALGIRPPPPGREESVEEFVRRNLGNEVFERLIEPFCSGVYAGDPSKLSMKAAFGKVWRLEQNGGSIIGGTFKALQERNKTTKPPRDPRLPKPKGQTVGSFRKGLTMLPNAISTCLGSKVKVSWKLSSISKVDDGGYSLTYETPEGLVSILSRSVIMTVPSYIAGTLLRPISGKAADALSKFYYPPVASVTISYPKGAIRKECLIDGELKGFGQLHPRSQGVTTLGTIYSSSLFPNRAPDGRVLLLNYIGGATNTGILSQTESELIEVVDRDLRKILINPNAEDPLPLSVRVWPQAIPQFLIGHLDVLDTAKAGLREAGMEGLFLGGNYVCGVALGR

[4] = tested on: Gossypium hirsutum; assay: Phytotoxicity against Gossypium hirsutum (cotton) assessed as injury at 50 g/ha applied as post-emergent treatment at 15 days post-sowing measured after 15 days relative to control; type: organism-based; conditions: in vivo, other, 360 h
[5] = tested on: Portulaca oleracea; assay: Post-emergence herbicidal activity against Portulaca oleracea assessed as injury at 150 g/ha applied at 15 days post-sowing measured after 15 days relative to control; type: functional
[6] = tested on: Panicum dichotomiflorum; assay: Post-emergence herbicidal activity against Panicum dichotomiflorum assessed as injury at 150 g/ha applied at 15 days post-sowing measured after 15 days relative to control; type: functional
[7] = tested on: Chenopodium album; assay: Post-emergence herbicidal activity against Chenopodium album assessed as injury at 50 g/ha applied at 15 days post-sowing measured after 15 days relative to control; type: functional
[8] = tested on: Chenopodium album; assay: Pre-emergence herbicidal activity against Chenopodium album assessed as injury at 50 g/ha applied at 24 hr post-sowing measured after 28 days relative to control; type: functional
[9] = tested on: Oryza sativa; assay: Phytotoxicity against Oryza sativa (rice) assessed as injury at 150 g/ha applied as pre-emergent treatment at 24 hr post-sowing measured after 28 days relative to control; type: organism-based; conditions: in vivo, other, 672 h
[10] = tested on: Digitaria sanguinalis; assay: Pre-emergence herbicidal activity against Digitaria sanguinalis (hairy crabgrass) assessed as injury at 150 g/ha applied at 24 hr post-sowing measured after 28 days relative to control; type: functional
[11] = tested on: Alopecurus myosuroides; assay: Post-emergence herbicidal activity against Alopecurus myosuroides assessed as injury at 15 g/ha applied at 15 days post-sowing measured after 15 days relative to control; type: functional
[12] = tested on: Solanum nigrum; assay: Pre-emergence herbicidal activity against Solanum nigrum (black nightshade) assessed as injury at 50 g/ha applied at 24 hr post-sowing measured after 28 days relative to control; type: functional
[13] = tested on: Calystegia sepium; assay: Post-emergence herbicidal activity against Calystegia sepium assessed as injury at 5 g/ha applied at 15 days post-sowing measured after 15 days relative to control; type: functional
[14] = tested on: Abutilon theophrasti; assay: Pre-emergence herbicidal activity against Abutilon theophrasti (velvetleaf) assessed as injury at 150 g/ha applied at 24 hr post-sowing measured after 28 days relative to control; type: functional
[15] = tested on: Echinochloa crus-galli; assay: Post-emergence herbicidal activity against Echinochloa crus-galli (barnyard grass) assessed as injury at 150 g/ha applied at 15 days post-sowing measured after 15 days relative to control; type: functional
[16] = tested on: Phalaris arundinacea; assay: Post-emergence herbicidal activity against Phalaris arundinacea assessed as injury at 50 g/ha applied at 15 days post-sowing measured after 15 days relative to control; type: functional
[17] = tested on: Matricaria chamomilla; assay: Post-emergence herbicidal activity against Matricaria chamomilla assessed as injury at 150 g/ha applied at 15 days post-sowing measured after 15 days relative to control; type: functional
[18] = tested on: Ammi majus; assay: Pre-emergence herbicidal activity against Amni maius assessed as injury at 150 g/ha applied at 24 hr post-sowing measured after 28 days relative to control; type: functional
[19] = tested on: Echinochloa crus-galli; assay: Pre-emergence herbicidal activity against Echinochloa crus-galli (barnyard grass) assessed as injury at 150 g/ha applied at 24 hr post-sowing measured after 28 days relative to control; type: functional
[20] = tested on: Stellaria media; assay: Pre-emergence herbicidal activity against Stellaria media assessed as injury at 150 g/ha applied at 24 hr post-sowing measured after 28 days relative to control; type: functional
[21] = tested on: Glycine max; assay: Phytotoxicity against Glycine max (soybean) assessed as injury at 15 g/ha applied as post-emergent treatment at 15 days post-sowing measured after 15 days relative to control; type: organism-based; conditions: in vivo, other, 360 h
[22] = tested on: Sida spinosa; assay: Post-emergence herbicidal activity against Sida spinosa assessed as injury at 50 g/ha applied at 15 days post-sowing measured after 15 days relative to control; type: functional
[23] = tested on: Abutilon theophrasti; assay: Post-emergence herbicidal activity against Abutilon theophrasti (velvetleaf) assessed as injury at 150 g/ha applied at 15 days post-sowing measured after 15 days relative to control; type: functional
[24] = tested on: Veronica persica; assay: Post-emergence herbicidal activity against Veronica persica assessed as injury at 150 g/ha applied at 15 days post-sowing measured after 15 days relative to control; type: functional
[25] = tested on: Chenopodium album; assay: Pre-emergence herbicidal activity against Chenopodium album assessed as injury at 150 g/ha applied at 24 hr post-sowing measured after 28 days relative to control; type: functional
[26] = tested on: Solanum nigrum; assay: Post-emergence herbicidal activity against Solanum nigrum (black nightshade) assessed as injury at 5 g/ha applied at 15 days post-sowing measured after 15 days relative to control; type: functional
[27] = tested on: Alopecurus myosuroides; assay: Pre-emergence herbicidal activity against Alopecurus myosuroides assessed as injury at 50 g/ha applied at 24 hr post-sowing measured after 28 days relative to control; type: functional
[28] = tested on: Portulaca oleracea; assay: Pre-emergence herbicidal activity against Portulaca oleracea assessed as injury at 50 g/ha applied at 24 hr post-sowing measured after 28 days relative to control; type: functional
[29] = tested on: Galium aparine; assay: Pre-emergence herbicidal activity against Galium aparine assessed as injury at 50 g/ha applied at 24 hr post-sowing measured after 28 days relative to control; type: functional
[30] = tested on: Stellaria media; assay: Post-emergence herbicidal activity against Stellaria media assessed as injury at 150 g/ha applied at 15 days post-sowing measured after 15 days relative to control; type: functional
[31] = tested on: Avena fatua; assay: Pre-emergence herbicidal activity against Avena fatua assessed as injury at 50 g/ha applied at 24 hr post-sowing measured after 28 days relative to control; type: functional
[32] = tested on: Setaria viridis; assay: Post-emergence herbicidal activity against Setaria viridis (green foxtail) assessed as injury at 50 g/ha applied at 15 days post-sowing measured after 15 days relative to control; type: functional
[33] = tested on: Digitaria sanguinalis; assay: Post-emergence herbicidal activity against Digitaria sanguinalis (hairy crabgrass) assessed as injury at 150 g/ha applied at 15 days post-sowing measured after 15 days relative to control; type: functional

Structure (SMILES): C#CCOc1cc(-n2nc(C(C)(C)C)sc2=O)c(Cl)cc1Cl
- Activity [1]: 70%
- Activity [2]: 0%
- inhibition [3]: Active
- Activity [4]: 30%
- Activity [5]: 90%
- Activity [6]: 90%
- Activity [7]: 90%
- Activity [8]: 70%
- Activity [9]: 0%
- Activity [10]: 90%
- Activity [11]: 0%
- Activity [12]: 30%
- Activity [13]: 10%
- Activity [14]: 0%
- Activity [15]: 10%
- Activity [16]: 30%
- Activity [17]: 10%
- Activity [18]: 0%
- Activity [19]: 70%
- Activity [20]: 30%
- Activity [21]: 0%
- Activity [22]: 50%
- Activity [23]: 90%
- Activity [24]: 50%
- Activity [25]: 90%
- Activity [26]: 0%
- Activity [27]: 10%
- Activity [28]: 70%
- Activity [29]: 0%
- Activity [30]: 0%
- Activity [31]: 0%
- Activity [32]: 10%
- Activity [33]: 70%
